According to ChEMBL document CHEMBL1157928, “Discovery and structural optimization of pyrazole derivatives as novel inhibitors of Cdc25B” (Bioorg Med Chem Lett, 2010):

What was measured:
[1] = molecular target: T1, M-phase inducer phosphatase 2 (Homo sapiens, UniProt P30305); assay: Inhibition of CDC25B
T1 sequence (P30305 whole entry): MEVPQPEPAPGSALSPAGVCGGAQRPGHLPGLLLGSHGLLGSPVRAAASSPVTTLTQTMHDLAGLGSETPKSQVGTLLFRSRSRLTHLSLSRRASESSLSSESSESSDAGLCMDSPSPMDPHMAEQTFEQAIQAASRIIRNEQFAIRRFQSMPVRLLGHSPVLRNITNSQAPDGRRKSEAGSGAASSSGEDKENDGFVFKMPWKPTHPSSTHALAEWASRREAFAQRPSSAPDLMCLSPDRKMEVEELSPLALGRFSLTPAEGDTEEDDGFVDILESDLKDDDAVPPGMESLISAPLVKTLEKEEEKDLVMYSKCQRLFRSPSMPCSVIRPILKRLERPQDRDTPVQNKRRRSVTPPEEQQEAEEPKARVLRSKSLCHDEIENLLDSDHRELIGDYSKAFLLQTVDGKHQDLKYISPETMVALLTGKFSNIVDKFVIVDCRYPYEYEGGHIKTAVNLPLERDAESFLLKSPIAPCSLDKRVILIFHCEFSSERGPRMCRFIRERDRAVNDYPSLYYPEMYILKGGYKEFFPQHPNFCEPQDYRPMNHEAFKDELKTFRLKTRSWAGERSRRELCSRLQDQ

[2] = molecular target: T2, Tyrosine-protein phosphatase non-receptor type 2 (Homo sapiens, UniProt P17706); assay: Inhibition of TCPTP; conditions: read-out: IC50
T2 sequence (P17706 whole entry): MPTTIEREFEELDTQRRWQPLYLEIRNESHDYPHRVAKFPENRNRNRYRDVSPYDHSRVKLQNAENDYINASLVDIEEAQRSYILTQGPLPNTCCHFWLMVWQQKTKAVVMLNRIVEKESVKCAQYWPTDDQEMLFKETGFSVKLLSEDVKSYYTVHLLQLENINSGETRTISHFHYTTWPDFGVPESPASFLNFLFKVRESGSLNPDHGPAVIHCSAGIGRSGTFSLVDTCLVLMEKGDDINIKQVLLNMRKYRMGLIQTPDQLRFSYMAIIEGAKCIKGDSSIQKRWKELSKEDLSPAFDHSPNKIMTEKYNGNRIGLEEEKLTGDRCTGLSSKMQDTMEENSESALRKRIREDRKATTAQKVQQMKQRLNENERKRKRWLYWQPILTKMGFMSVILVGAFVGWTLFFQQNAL

[3] = molecular target: Tyrosine-protein phosphatase non-receptor type 6 (Homo sapiens, UniProt P29350); assay: Inhibition of SHP1
Sequence of Tyrosine-protein phosphatase non-receptor type 6 (P29350 whole entry): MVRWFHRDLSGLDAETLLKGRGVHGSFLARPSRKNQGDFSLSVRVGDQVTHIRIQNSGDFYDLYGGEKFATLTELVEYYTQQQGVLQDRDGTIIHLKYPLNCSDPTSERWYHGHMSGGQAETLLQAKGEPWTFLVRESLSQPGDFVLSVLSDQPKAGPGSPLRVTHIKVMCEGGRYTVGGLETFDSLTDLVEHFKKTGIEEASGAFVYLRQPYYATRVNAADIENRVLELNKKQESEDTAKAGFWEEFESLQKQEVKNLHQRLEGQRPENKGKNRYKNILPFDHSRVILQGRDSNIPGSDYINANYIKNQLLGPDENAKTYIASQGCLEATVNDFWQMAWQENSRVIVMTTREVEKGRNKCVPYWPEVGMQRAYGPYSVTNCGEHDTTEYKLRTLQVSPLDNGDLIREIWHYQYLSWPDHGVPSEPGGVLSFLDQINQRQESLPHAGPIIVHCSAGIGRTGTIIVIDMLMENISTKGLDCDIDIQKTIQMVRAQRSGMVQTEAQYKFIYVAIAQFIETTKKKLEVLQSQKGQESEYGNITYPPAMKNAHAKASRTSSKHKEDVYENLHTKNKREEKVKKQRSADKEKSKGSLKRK

[4] = molecular target: T3, Tyrosine-protein phosphatase non-receptor type 1 (Homo sapiens, UniProt P18031); assay: Inhibition of PTP1B; conditions: read-out: IC50
T3 sequence (P18031 whole entry): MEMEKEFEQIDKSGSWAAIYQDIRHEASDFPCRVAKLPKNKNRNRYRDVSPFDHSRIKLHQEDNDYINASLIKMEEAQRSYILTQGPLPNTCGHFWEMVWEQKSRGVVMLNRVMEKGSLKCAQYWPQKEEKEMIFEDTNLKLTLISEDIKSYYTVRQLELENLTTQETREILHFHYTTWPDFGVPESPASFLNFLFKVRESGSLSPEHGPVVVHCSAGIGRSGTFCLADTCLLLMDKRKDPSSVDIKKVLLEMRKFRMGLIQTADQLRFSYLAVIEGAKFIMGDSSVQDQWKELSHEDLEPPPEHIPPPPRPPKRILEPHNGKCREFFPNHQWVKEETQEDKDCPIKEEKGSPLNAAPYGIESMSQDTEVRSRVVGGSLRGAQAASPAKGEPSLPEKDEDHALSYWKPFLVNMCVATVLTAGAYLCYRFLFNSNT

[5] = molecular target: Receptor-type tyrosine-protein phosphatase F (Homo sapiens, UniProt P10586); assay: Inhibition of PTP-LAR
Sequence of Receptor-type tyrosine-protein phosphatase F (P10586 whole entry): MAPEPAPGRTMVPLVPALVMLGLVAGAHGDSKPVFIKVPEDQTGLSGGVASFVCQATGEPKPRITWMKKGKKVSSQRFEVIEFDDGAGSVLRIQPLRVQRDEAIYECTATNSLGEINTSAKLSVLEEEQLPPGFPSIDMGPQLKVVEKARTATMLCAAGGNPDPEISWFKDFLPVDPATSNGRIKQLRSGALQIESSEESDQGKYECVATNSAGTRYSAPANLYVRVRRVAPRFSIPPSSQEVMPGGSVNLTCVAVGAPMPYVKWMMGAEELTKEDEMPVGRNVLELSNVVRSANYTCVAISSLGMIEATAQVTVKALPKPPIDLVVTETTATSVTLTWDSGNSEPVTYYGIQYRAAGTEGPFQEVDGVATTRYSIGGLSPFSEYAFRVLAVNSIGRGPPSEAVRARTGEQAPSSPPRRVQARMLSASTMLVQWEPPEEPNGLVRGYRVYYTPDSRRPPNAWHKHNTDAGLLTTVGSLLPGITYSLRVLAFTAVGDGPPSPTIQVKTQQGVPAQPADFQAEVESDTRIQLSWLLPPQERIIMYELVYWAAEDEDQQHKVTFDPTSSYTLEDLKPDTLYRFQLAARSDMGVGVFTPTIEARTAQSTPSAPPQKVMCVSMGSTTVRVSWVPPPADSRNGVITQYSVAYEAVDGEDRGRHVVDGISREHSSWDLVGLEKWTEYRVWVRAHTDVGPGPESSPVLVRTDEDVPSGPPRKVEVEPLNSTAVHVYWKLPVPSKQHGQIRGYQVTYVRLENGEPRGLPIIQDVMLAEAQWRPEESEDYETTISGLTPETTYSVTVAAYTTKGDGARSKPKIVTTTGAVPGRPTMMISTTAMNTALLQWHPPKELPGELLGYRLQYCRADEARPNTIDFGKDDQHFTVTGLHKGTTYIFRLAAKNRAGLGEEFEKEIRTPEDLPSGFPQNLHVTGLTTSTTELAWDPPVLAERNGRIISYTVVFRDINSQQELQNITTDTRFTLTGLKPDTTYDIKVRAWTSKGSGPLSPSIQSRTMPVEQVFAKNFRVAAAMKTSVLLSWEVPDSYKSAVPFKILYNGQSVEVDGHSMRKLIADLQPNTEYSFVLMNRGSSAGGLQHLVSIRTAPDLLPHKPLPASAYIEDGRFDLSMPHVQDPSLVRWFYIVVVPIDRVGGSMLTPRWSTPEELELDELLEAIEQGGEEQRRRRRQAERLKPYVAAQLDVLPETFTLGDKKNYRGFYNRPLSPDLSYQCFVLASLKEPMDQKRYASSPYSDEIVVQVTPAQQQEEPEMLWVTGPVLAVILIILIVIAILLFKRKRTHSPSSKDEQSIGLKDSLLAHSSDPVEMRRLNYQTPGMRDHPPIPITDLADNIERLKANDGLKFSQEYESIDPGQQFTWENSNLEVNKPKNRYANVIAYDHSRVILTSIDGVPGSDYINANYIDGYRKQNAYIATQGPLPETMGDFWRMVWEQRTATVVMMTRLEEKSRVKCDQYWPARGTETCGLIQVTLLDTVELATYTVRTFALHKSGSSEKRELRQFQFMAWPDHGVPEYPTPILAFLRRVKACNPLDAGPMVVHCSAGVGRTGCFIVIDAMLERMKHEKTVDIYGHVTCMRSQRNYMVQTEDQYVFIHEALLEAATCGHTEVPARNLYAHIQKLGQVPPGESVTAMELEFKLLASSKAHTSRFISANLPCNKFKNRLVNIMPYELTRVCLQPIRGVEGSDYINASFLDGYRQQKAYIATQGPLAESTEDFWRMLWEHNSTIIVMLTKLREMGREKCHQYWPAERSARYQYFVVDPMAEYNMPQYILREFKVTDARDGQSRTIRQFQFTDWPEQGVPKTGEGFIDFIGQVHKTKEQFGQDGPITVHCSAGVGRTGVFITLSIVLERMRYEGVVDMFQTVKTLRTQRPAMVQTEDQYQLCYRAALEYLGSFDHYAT

[6] = molecular target: T4, Tyrosine-protein phosphatase non-receptor type 11 (Homo sapiens, UniProt Q06124); assay: Inhibition of SHP2
T4 sequence (Q06124 whole entry): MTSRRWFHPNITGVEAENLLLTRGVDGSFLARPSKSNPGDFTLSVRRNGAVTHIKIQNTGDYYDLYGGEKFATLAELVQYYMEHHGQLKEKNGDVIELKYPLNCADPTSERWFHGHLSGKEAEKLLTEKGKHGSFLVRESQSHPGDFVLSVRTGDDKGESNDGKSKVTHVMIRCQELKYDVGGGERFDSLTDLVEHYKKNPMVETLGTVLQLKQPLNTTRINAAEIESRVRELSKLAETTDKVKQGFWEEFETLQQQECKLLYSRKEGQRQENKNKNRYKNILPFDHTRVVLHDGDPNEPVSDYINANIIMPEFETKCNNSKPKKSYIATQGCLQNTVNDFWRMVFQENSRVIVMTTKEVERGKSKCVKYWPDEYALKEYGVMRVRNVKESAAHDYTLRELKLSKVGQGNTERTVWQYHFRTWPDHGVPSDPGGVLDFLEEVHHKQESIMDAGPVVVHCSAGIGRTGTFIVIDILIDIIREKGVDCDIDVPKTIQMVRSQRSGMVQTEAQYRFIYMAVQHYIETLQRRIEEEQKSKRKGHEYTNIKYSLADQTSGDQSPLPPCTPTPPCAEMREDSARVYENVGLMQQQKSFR

| SMILES | IC50 ([1]; read-out: IC50) [µM] | other results |
| --- | --- | --- |
| CCCCCCCCCCCCCCCCCC(=O)c1cc(C(=O)Nc2ccccc2C(=O)O)[nH]n1 | 0.16 | IC50 [2]: 1.3 µM; IC50 ([3]; read-out: IC50): 10.6 µM; IC50 [4]: 0.35 µM; IC50 [5]: Not Active; IC50 ([6]; read-out: IC50): 15.2 µM |
| CCCCCCCCCCCCCCCCCC(=O)c1n[nH]c2c1C(=O)N(C1CCCCC1)C2=O | 2.92 | – |
| CCCCCCCCCCCCCCCCCC(=O)c1n[nH]c2c1C(=O)N(c1cccc3ccccc13)C2=O | 0.31 | – |
| CCOC(=O)c1n[nH]c2c1C(=O)N(c1ccccc1Cl)C2=O | – | IC50 [1]: Not Active |
| CCOC(=O)c1n[nH]c2c1C(=O)N(c1cccc(Cl)c1)C2=O | – | IC50 [1]: Not Active |
| CCCCCCCCCCCCCCCCCC(=O)c1n[nH]c2c1C(=O)N(c1ccccc1Br)C2=O | 0.25 | – |
| CCCCCCCCCCCCCCCCCC(=O)c1n[nH]c2c1C(=O)N(c1ccccc1C(=O)OC)C2=O | 0.41 | – |
| CCCCCCCCCCCCCCCCCC(=O)c1n[nH]c2c1C(=O)N(c1ccc(C(=O)OC)cc1)C2=O | 0.49 | – |
| CCCCCCCCCCCCCCCCCC(=O)c1n[nH]c2c1C(=O)N(Cc1ccccc1)C2=O | 0.73 | – |
| CCCCCCCCCCCCCCCCCC(=O)c1n[nH]c2c1C(=O)N(Cc1ccc(F)cc1)C2=O | 2.08 | – |
| CCCCCCCCCCCCCCCCCC(=O)c1n[nH]c2c1C(=O)N(c1ccsc1C(=O)OC)C2=O | 0.34 | – |
| CCCCCCCCCCCCCCCCCC(=O)c1cc(C(=O)Nc2ccccc2C(=O)OC)[nH]n1 | 5.08 | IC50 [2]: 18.7 µM; IC50 [3]: Not Active; IC50 [4]: 7.49 µM; IC50 [5]: Not Active; IC50 [6]: Not Active |
| CCCCCCCCCCCCCCCCCC(=O)c1n[nH]c2c1C(=O)N(c1ccccc1C)C2=O | 2.13 | – |

Now from value to compound, other results behind:

| IC50 ([1]; read-out: IC50) [µM] | SMILES | other results |
| --- | --- | --- |
| 1.47 | CCCCCCCCCCCCCCCCCC(=O)c1n[nH]c2c1C(=O)N(c1cccc(F)c1)C2=O | – |
| 0.54 | CCCCCCCCCCCCCCCCCC(=O)c1n[nH]c2c1C(=O)N(c1ccc(F)cc1)C2=O | – |
| 0.24 | CCCCCCCCCCCCCCCCCC(=O)c1n[nH]c2c1C(=O)N(c1cccc(Cl)c1)C2=O | – |
| 4.33 | CCCCCCCCCCCCCCCCCC(=O)c1n[nH]c2c1C(=O)N(c1ccc(C)cc1)C2=O | – |
| 0.17 | CCCCCCCCCCCCCCCCCC(=O)c1n[nH]c2c1C(=O)N(c1ccc(Cl)cc1)C2=O | – |
| 1.15 | CCCCCCCCCCCCCCCCCC(=O)c1n[nH]c2c1C(=O)N(c1ccc(F)c(Cl)c1)C2=O | – |
| 1.11 | CCCCCCCCCCCCCCCCCC(=O)c1n[nH]c2c1C(=O)N(c1cccc([N+](=O)[O-])c1)C2=O | – |
| 0.45 | CCCCCCCCCCCCCCCCCC(=O)c1n[nH]c2c1C(=O)N(c1ccccc1F)C2=O | – |
| 0.23 | CCCCCCCCCCCCCCCCCC(=O)c1n[nH]c2c1C(=O)N(c1ccccc1)C2=O | IC50 [2]: 3.31 µM; IC50 [3]: Not Active; IC50 [4]: 1.56 µM; IC50 [5]: Not Active; IC50 ([6]; read-out: IC50): 9.59 µM |
| 2.6 | CCCCCCCCCCCCCCCCCC(=O)c1n[nH]c2c1C(=O)N(c1cccc(C)c1)C2=O | – |
